Measured values taken from the supplement of paper PMC10307832.

Tests used:
Experiment in all cases: relative viability (nuclei count vs DMSO), 5 days (fraction); higher = more cells survive
Wnt-C59 + Decitabine = compound: CC1=NC=CC(=C1)C2=CC=C(C=C2)CC(=O)NC3=CC=C(C=C3)C4=CN=CC=C4 [Wnt-C59] + Nc1ncn([C@H]2C[C@H](O)[C@@H](CO)O2)c(=O)n1 [Decitabine] (partner 2 µM)
Summary of the method: (§1)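 Relative viability was taken as the ratio of nuclei in treated wells to nuclei in vehicle wells. Lung cancer cell lines in 1536-well plates received compounds by pin tool one day after seeding, either one drug alone or a fixed anchor-drug dose plus five library-drug doses (not always all listed) in √10 steps. Nuclei were counted on 4× images after 5 days of treatment, and values are medians of duplicate plates.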

Lapatinib + OSI-027 = compound: CS(=O)(=O)CCNCc1ccc(-c2ccc3ncnc(Nc4ccc(OCc5cccc(F)c5)c(Cl)c4)c3c2)o1 [Lapatinib] + COc1cccc2cc(-c3nc([C@H]4CC[C@H](C(=O)O)CC4)n4ncnc(N)c34)[nH]c12 [OSI-027] (partner 0.5 µM)
Summary of the method: as §1

Lapatinib + Dasatinib = compound: CS(=O)(=O)CCNCc1ccc(-c2ccc3ncnc(Nc4ccc(OCc5cccc(F)c5)c(Cl)c4)c3c2)o1 [Lapatinib] + Cc1nc(Nc2ncc(C(=O)Nc3c(C)cccc3Cl)s2)cc(N2CCN(CCO)CC2)n1 [Dasatinib] (partner 0.075 µM)
Summary of the method: as §1

Lapatinib + Vorinostat = compound: CS(=O)(=O)CCNCc1ccc(-c2ccc3ncnc(Nc4ccc(OCc5cccc(F)c5)c(Cl)c4)c3c2)o1 [Lapatinib] + O=C(CCCCCCC(=O)Nc1ccccc1)NO [Vorinostat] (partner 1 µM)
Summary of the method: as §1

| Cell Line | relative viability (Wnt-C59 + Decitabine; first compound 0.001 µM) | relative viability (Wnt-C59 + Decitabine; first compound 0.01 µM) | relative viability (Wnt-C59 + Decitabine; first compound 0.03162 µM) | relative viability (Wnt-C59 + Decitabine; first compound 0.1 µM) | relative viability (Lapatinib + OSI-027; first compound 0.06325 µM) | relative viability (Lapatinib + OSI-027; first compound 0.2 µM) | relative viability (Lapatinib + OSI-027; first compound 0.6325 µM) | relative viability (Lapatinib + OSI-027; first compound 2 µM) | relative viability (Lapatinib + Dasatinib; first compound 0.06325 µM) | relative viability (Lapatinib + Dasatinib; first compound 0.2 µM) | relative viability (Lapatinib + Dasatinib; first compound 0.6325 µM) | relative viability (Lapatinib + Dasatinib; first compound 2 µM) | relative viability (Lapatinib + Vorinostat; first compound 0.06325 µM) | relative viability (Lapatinib + Vorinostat; first compound 0.2 µM) | relative viability (Lapatinib + Vorinostat; first compound 0.6325 µM) | relative viability (Lapatinib + Vorinostat; first compound 2 µM) | relative viability (Lapatinib + OSI-027; first compound 0.02 µM) | relative viability (Lapatinib + Dasatinib; first compound 0.02 µM) | relative viability (Lapatinib + Vorinostat; first compound 0.02 µM) |
| --- | --- | --- | --- | --- | --- | --- | --- | --- | --- | --- | --- | --- | --- | --- | --- | --- | --- | --- | --- |
| NCI-H596 | 0.996 | 0.918 | 1.07 | 1.42 | 0.52 | 0.566 | 0.671 | 0.416 | 0.521 | 0.621 | 0.573 | 0.486 | 0.538 | 0.606 | 0.711 | 0.537 | – | – | – |
| NCI-H647 | 0.379 | 0.456 | 0.393 | 0.288 | 0.488 | 0.527 | 0.689 | 0.642 | 0.155 | 0.167 | 0.197 | 0.201 | 0.403 | 0.627 | 0.498 | 0.584 | 0.635 | 0.158 | 0.627 |
| NCI-H650 | 0.346 | 0.286 | 0.308 | 0.329 | 0.411 | 0.468 | 0.505 | 0.543 | 0.389 | 0.404 | 0.458 | 0.439 | 0.38 | 0.434 | 0.577 | 0.538 | – | – | – |
| NCI-H661 | 0.542 | 0.516 | 0.576 | 0.606 | 0.322 | 0.545 | 0.495 | 0.424 | 0.572 | 0.504 | 0.523 | 0.368 | 0.783 | 0.79 | 0.736 | 0.605 | 0.654 | 0.759 | 0.758 |
| NCI-H727 | 0.91 | 0.902 | 0.901 | 0.997 | – | 0.557 | 0.467 | 0.499 | – | 0.317 | 0.338 | 0.359 | – | 1.17 | 1.45 | 1.02 | 0.529 | – | 1.17 |
| NCI-H838 | 0.459 | 0.509 | 0.453 | 0.402 | 0.256 | 0.369 | 0.383 | 0.332 | – | 0.304 | 0.276 | 0.247 | 0.69 | 0.743 | 0.732 | 0.544 | 0.401 | 0.263 | 0.699 |
| NCI-H1355 | 0.361 | 0.354 | 0.349 | 0.337 | 0.216 | 0.342 | 0.367 | 0.268 | 0.465 | 0.705 | 0.694 | 0.319 | 0.541 | 0.568 | 0.61 | 0.395 | – | – | 0.574 |
| NCI-H1395 | 0.743 | 0.76 | 0.764 | 0.704 | 0.597 | 0.612 | 0.636 | 0.627 | 0.39 | 0.375 | 0.439 | 0.425 | 0.704 | 0.779 | 0.789 | 0.646 | 0.535 | 0.43 | – |
| NCI-H1437 | 0.584 | 0.562 | 0.559 | 0.614 | 0.684 | 0.841 | 0.751 | 0.645 | 0.245 | 0.382 | 0.304 | 0.345 | 0.861 | 0.825 | 0.793 | 0.527 | 0.814 | 0.28 | 0.782 |
| NCI-H1650 | 0.494 | 0.482 | 0.407 | 0.408 | 0.456 | 0.59 | 0.555 | 0.338 | 0.253 | 0.264 | 0.38 | 0.245 | 0.578 | 0.554 | 0.516 | 0.664 | 0.437 | 0.263 | 0.474 |
| NCI-H1651 | 0.671 | 0.675 | 0.613 | 0.597 | 0.454 | 0.622 | 0.648 | 0.519 | 0.284 | 0.386 | 0.476 | 0.406 | 0.517 | 0.477 | 0.543 | 0.521 | 0.648 | 0.443 | 0.615 |
| NCI-H1666 | 0.753 | 0.73 | 0.732 | 0.767 | 0.732 | 0.645 | 0.657 | 0.316 | 0.612 | 0.748 | 0.661 | 0.508 | 0.978 | 1.05 | 0.961 | 0.789 | 0.828 | 0.764 | 0.951 |
| NCI-H1734 | 0.501 | 0.452 | 0.558 | 0.523 | 0.375 | 0.579 | 0.721 | 0.507 | 0.384 | 0.544 | 0.511 | 0.488 | 0.708 | 0.816 | 0.88 | 0.792 | 0.615 | 0.456 | – |
| NCI-H1755 | 0.696 | 0.728 | 0.725 | 0.691 | 0.567 | 0.653 | 0.696 | 0.697 | 0.278 | 0.422 | 0.381 | 0.394 | 0.689 | 0.801 | 0.76 | 0.676 | 0.423 | 0.375 | 0.731 |
| NCI-H1793 | 0.458 | 0.461 | 0.615 | 0.521 | 0.143 | 0.235 | 0.167 | 0.16 | 0.339 | 0.398 | 0.319 | 0.316 | 0.495 | 0.646 | 0.646 | 0.42 | – | – | – |
| NCI-H1915 | 0.261 | 0.261 | 0.262 | 0.251 | 0.601 | 0.629 | 0.607 | 0.619 | 0.285 | 0.337 | 0.293 | 0.297 | 0.494 | 0.554 | 0.489 | 0.473 | – | – | – |
| NCI-H1944 | 0.501 | 0.459 | 0.51 | 0.43 | 0.237 | 0.356 | 0.361 | 0.31 | 0.153 | 0.204 | 0.243 | 0.207 | 0.511 | 0.461 | 0.459 | 0.437 | 0.28 | 0.185 | 0.514 |
| NCI-H1975 | 0.419 | 0.385 | 0.423 | 0.38 | 0.472 | 0.494 | 0.568 | 0.446 | 0.316 | 0.378 | 0.41 | 0.219 | 0.676 | 0.732 | 0.716 | 0.662 | 0.699 | 0.417 | 0.71 |
| NCI-H1993 | 0.597 | 0.594 | 0.64 | 0.66 | – | 0.593 | 0.586 | 0.652 | – | 0.55 | 0.516 | 0.563 | – | 0.721 | 0.672 | 0.509 | 0.557 | 0.564 | 0.45 |
| NCI-H2009 | 0.35 | 0.442 | 0.352 | 0.379 | 0.557 | 0.681 | 0.764 | 0.66 | 0.244 | 0.358 | 0.33 | 0.286 | 0.74 | 0.894 | 0.693 | 0.679 | 0.64 | 0.282 | 0.733 |
| NCI-H2023 | 0.227 | 0.244 | 0.251 | 0.221 | – | 0.337 | 0.382 | 0.177 | – | 0.516 | 0.619 | 0.381 | 0.402 | 0.603 | 0.612 | 0.552 | 0.379 | 0.458 | – |
| NCI-H2085 | 0.623 | 0.571 | 0.494 | 0.601 | 0.536 | 0.61 | 0.584 | 0.269 | 0.212 | 0.284 | 0.16 | 0.204 | 0.716 | 0.795 | 0.741 | 0.587 | – | 0.241 | 0.666 |
| NCI-H2087 | 0.245 | 0.28 | 0.281 | 0.336 | 0.259 | 0.547 | 0.527 | 0.489 | 0.609 | 0.874 | 0.988 | 0.854 | 0.843 | 0.728 | 0.604 | 0.671 | – | – | 0.547 |
| NCI-H2126 | 0.654 | 0.576 | 0.567 | 0.575 | – | 0.644 | 0.688 | 0.557 | 0.404 | 0.533 | 0.559 | 0.387 | 0.405 | 0.717 | 0.801 | 0.614 | – | – | 0.251 |
| NCI-H2170 | 0.47 | 0.516 | 0.506 | 0.474 | 0.459 | 0.64 | 0.41 | 0.245 | 0.272 | 0.276 | 0.419 | 0.165 | 0.747 | 0.578 | 0.582 | 0.372 | 0.459 | 0.394 | 0.726 |
| NCI-H2342 | 0.713 | 0.787 | 0.748 | 0.692 | 0.503 | 0.506 | 0.562 | 0.55 | 0.293 | 0.301 | 0.303 | 0.263 | 0.596 | 0.625 | 0.707 | 0.693 | 0.552 | 0.262 | 0.562 |
| NCI-H2347 | 0.629 | 0.628 | 0.643 | 0.602 | 0.266 | 0.462 | 0.44 | 0.366 | 0.315 | 0.299 | 0.329 | 0.25 | 0.629 | 0.554 | 0.689 | 0.547 | – | – | 0.501 |
| NCI-H2405 | 0.793 | 0.756 | 0.786 | 0.656 | 0.382 | 0.655 | 0.649 | 0.604 | 0.181 | 0.208 | 0.164 | 0.232 | 0.833 | – | 0.997 | 0.91 | 0.441 | 0.215 | – |
| NCI-H3122 | 0.453 | 0.477 | 0.476 | 0.385 | 0.556 | 0.962 | 0.902 | 0.893 | 0.407 | 0.85 | 0.675 | 0.859 | 1.06 | 0.963 | 0.977 | 0.974 | – | 0.736 | 0.932 |
| PC-3 [JPC-3] | 0.853 | 0.847 | 0.849 | 0.841 | 0.624 | 0.725 | 0.756 | 0.565 | 0.87 | 1 | 0.977 | 0.624 | 0.804 | – | 0.637 | 0.495 | 0.73 | 0.877 | – |
